From PMC10037499, “High-Throughput Screen Reveals the Structure–Activity Relationship of the Antimicrobial Lasso Peptide Ubonodin” (ACS Central Science, 2023) come the findings set out here.

The assay concerns RNA polymerase (RNAP) in E. coli MC1061. The assay is described as follows: High-throughput growth-based screen with NGS (enrichment value) for RNA polymerase inhibition. As to conditions: log2 of frequency post-IPTG / frequency in cloning transformation library, single mutant library. It counts as cell-based. An outline of the steps:
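E. coli MC1061 carrying ubonodin single/double variant plasmid libraries was grown and induced with 10 µM or 100 µM IPTG; surviving colonies were sequenced by NGS. Enrichment value = log2 of variant frequency post-IPTG over frequency in the cloning transformation library; depletion indicates RNAP inhibition.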

Structures are written as SMILES. Where a SMILES comes first, the peptide text is derived from it.

`CC[C@H](C)[C@@H]1NC(=O)[C@H](CO)NC(=O)CNC(=O)[C@H](CC(=O)O)NC(=O)CNC(=O)CNC(=O)CC[C@@H](C(=O)N[C@@H](Cc2ccc(O)cc2)C(=O)N[C@@H](Cc2ccccc2)C(=O)N[C@@H](CC(N)=O)C(=O)N[C@@H](CCCNC(=N)N)C(=O)N2CCC[C@H]2C(=O)N[C@@H](CCSC)C(=O)N[C@@H](Cc2c[nH]cn2)C(=O)N[C@H](C(=O)N[C@@H](Cc2c[nH]cn2)C(=O)N[C@@H](CC(=O)O)C(=O)N[C@@H](Cc2c[nH]c3ccccc23)C(=O)N[C@@H](CCC(N)=O)C(=O)N[C@H](C(=O)N[C@@H](CCSC)C(=O)N[C@@H](CC(=O)O)C(=O)N[C@@H](CO)C(=O)NCC(=O)N[C@@H](Cc2ccc(O)cc2)C(=O)N[C@@H](Cc2ccc(O)cc2)C(=O)NCC(=O)O)[C@@H](C)CC)[C@@H](C)CC)NC(=O)[C@H](C)NC1=O` [WT, ubonodin] (HELM PEPTIDE1{G.G.D.G.S.I.A.E.Y.F.N.R.P.M.H.I.H.D.W.Q.I.M.D.S.G.Y.Y.G}$PEPTIDE1,PEPTIDE1,1:R1-8:R3$$$V2.0; C-terminus assumed) gave an Enrichment value (induction with 10 μM IPTG) of −4.2 and an Enrichment value (induction with 100 μM IPTG) of −4.3.
